Like-named read-outs stand apart in the source and are kept apart here.
Assays:
[1] = biological target: cyclophilin; assay: Cis-trans isomerase inhibitory activity (chymotrypsin-coupled Suc-AAPF-pNA cleavage, absorbance 390 nm); assay type: biochemical
From the text: Chymotrypsin cleaves a trans-type alanine-proline peptide bond. When Suc-AAPF-pNA (a peptide substrate) and chymotrypsin are mixed, the trans-type peptide substrate is cleaved and the cis-type peptide substrate remains. The remaining cis-type peptide substrate is converted into a trans form by a cis-trans isomerase and is then cleaved again by chymotrypsin. When the cis-trans isomerase is present, chymotrypsin is able to cleave a larger amount of trans-type peptide substrate within a predetermined period of time, from which the activity of the cis-trans isomerase may be determined. The amount of the cleaved trans-type peptide substrate is measured using absorbance at 390 nm. Cyclophilin has cis-trans isomerase activity, and accelerates the cleavage of trans-type peptide substrate by chymotrypsin. When the stilbene derivatives of the present invention were treated together with cyclophilin, the cleavage of the peptide substrate by chymotrypsin was not observed to accelerate. Thereby, the stilbene derivatives of the invention can be concluded to inhibit the activity of cyclophilin.

[2] = tested on: hepatitis C virus; assay: Antiviral activity in HCV replicon cells (Renilla luciferase); assay type: cell-based
Method: The antiviral activity of the stilbene derivatives on hepatitis C virus was measured. The replicon cells that stably replicate the hepatitis C virus genome were attached to a culture plate and cultured in a CO2 incubator at 37° C. for 24 hr. The replicon cells cultured for one day were washed with a PBS solution, treated with the compounds of the present invention, and then cultured for 72 hr. The stilbene derivative-treated replicon cells were washed with a cold PBS solution and added with 20 μL of a cell lysis solution so that the cells were lysed in ice for 20 min. 100 μL of a Renilla luciferase substrate was added thereto, after which the luminescence thereof was measured and thus the amount of the hepatitis C virus genome was estimated. The amount of the hepatitis C virus genome in the stilbene derivative-treated replicon cells according to the present invention relative to the amount of the hepatitis C virus genome in dimethylsulfoxide (DMSO)-treated replicon cells is shown.
Compounds 1 to 155 of Tables 1 to 10 may be grouped as follows based on the antiviral activity (EC50) values: […]

[3] = tested on: mitochondria obtained from hepatocytes; assay: Inhibitory activity on calcium-induced mitochondrial swelling (absorbance 520 nm)
From the text: Cyclophilin is a key protein for forming permeability transition pores (PTP) in mitochondria. When permeability transition pores are formed, mitochondria swell, whereby the outer membrane thereof ruptures and thus cell death progresses. Such mitochondrial dysfunction causes many diseases including neurodegenerative diseases, cancer, and the like. Cyclosporine, a known cyclophilin inhibitor, is capable of preventing the formation of permeability transition pores to thus suppress mitochondrial swelling.
The mitochondrial swelling test was performed as follows. Specifically, the hepatocytes were disrupted using a Dounce tissue grinder. The disrupted cells were centrifuged at 700×g for 10 min and the supernatant was transferred into a new tube. The supernatant was centrifuged at 12,000×g for 15 min, thereby obtaining mitochondria.
When the extracted mitochondria were added with calcium, they swelled, which may be observed by measuring the absorbance at 520 nm. The stilbene derivatives are effective at inhibiting mitochondrial swelling due to calcium.
The activity of Compounds 1 to 155 of Tables 1 to 10 on inhibiting mitochondrial swelling may be determined based on IC50 values, and may be grouped as follows: […]

[4] = cyclophilin, chymotrypsin, Suc-AAPF-pNA, read-out: Test Example 1: cis-trans isomerase inhibitory activity (IC50)
[5] = Hepatitis C virus, HCV replicon cells, 72 hr, Renilla luciferase, relative to DMSO, read-out: Test Example 3: antiviral activity (EC50)
[6] = Hepatocyte, calcium-induced swelling of extracted mitochondria, read-out: Test Example 4: inhibiting mitochondrial swelling (IC50)
[7] = Hepatitis C virus, 72 h, read-out: Test Example 3: antiviral activity (EC50)
[8] = read-out: Test Example 1: cis-trans isomerase inhibitory activity (IC50) group
[9] = Hepatitis C virus, HCV replicon cells, read-out: Test Example 3: antiviral activity (EC50) group
[10] = Hepatocyte, read-out: Test Example 4: activity on inhibiting mitochondrial swelling (IC50) group

SMILES	IC50 [1, 4] [nM]	EC50 [2, 5] [nM]	IC50 [3, 6] [nM]	also measured
CCCCOC(=O)c1c(C=C(N)c2ccc(CC(C)(C)C)cc2)ccc(C)c1C [Compound 102]	20 to 200	500 to 5000	5000 to 50000	–
CCCCCOC(=O)c1ccccc1C=C(N)c1ccc(CC(C)(C)C)cc1 [Compound 103]	20 to 200	500 to 5000	5000 to 50000	–
CC(C)OC(=O)c1ccccc1C=C(N)c1ccc(CC(C)(C)C)cc1 [Compound 104]	20 to 200	500 to 5000	5000 to 50000	–
CC(C)(C)Cc1ccc(C(N)=Cc2ccccc2C(=O)OCC2CCCCC2)cc1 [Compound 105]	20 to 200	500 to 5000	5000 to 50000	–
CC(C)(C)Cc1ccc(C(N)=Cc2ccccc2C(=O)OCc2ccccc2)cc1 [Compound 106]	20 to 200	500 to 5000	5000 to 50000	–
CC(C)(C)Cc1ccc(C(N)=Cc2ccccc2C(=O)OC2CCCCC2)cc1 [Compound 107]	20 to 200	500 to 5000	5000 to 50000	–
CCCCOC(=O)c1ccccc1C=C(N)c1ccc(CC(C)CC)cc1 (stereo not drawn) [Compound 108]	20 to 200	500 to 5000	5000 to 50000	–
CCCCOC(=O)c1ccccc1C=C(N)c1ccc(CC2CCCC2)cc1 [Compound 109]	20 to 200	500 to 5000	5000 to 50000	–
CCCCOC(=O)c1ccccc1C=C(N)c1ccc(CC2CCCCC2)cc1 [Compound 110]	20 to 200	500 to 5000	5000 to 50000	–
CCCCOC(=O)c1ccccc1C=C(N)c1ccc(Cc2ccccc2)cc1 [Compound 111]	20 to 200	–	5000 to 50000	EC50 [2, 7]: 500 to 5000 nM
CCCCOC(=O)c1ccccc1C=C(F)c1ccc(CC(C)(C)C)cc1 [Compound 112]	≤ 20	< 500	< 5000	–
CCCCOC(=O)c1c(C)cccc1C=C(Cl)c1ccc(CC(C)(C)C)cc1 [Compound 113]	≤ 20	< 500	< 5000	–
CCCCOC(=O)c1ccccc1C=C(Br)c1ccc(CC(C)(C)C)cc1C [Compound 114]	≤ 20	< 500	< 5000	–
CCCCOC(=O)c1cc(C)ccc1C=C(I)c1ccc(CC(C)(C)C)cc1 [Compound 115]	≤ 20	< 500	< 5000	–
CCCCOC(=O)c1c(C=C(F)c2ccc(CC(C)(C)C)cc2)ccc(C)c1C [Compound 116]	≤ 20	< 500	< 5000	–
CCCCCOC(=O)c1ccccc1C=C(Cl)c1ccc(CC(C)(C)C)cc1 [Compound 117]	≤ 20	< 500	< 5000	–
CC(C)OC(=O)c1ccccc1C=C(Br)c1ccc(CC(C)(C)C)cc1 [Compound 118]	≤ 20	< 500	< 5000	–
CC(C)(C)Cc1ccc(C(I)=Cc2ccccc2C(=O)OCC2CCCCC2)cc1 [Compound 119]	≤ 20	< 500	< 5000	–
CC(C)(C)Cc1ccc(C(F)=Cc2ccccc2C(=O)OCc2ccccc2)cc1 [Compound 120]	≤ 20	< 500	< 5000	–
CC(C)(C)Cc1ccc(C(Cl)=Cc2ccccc2C(=O)OC2CCCCC2)cc1 [Compound 121]	≤ 20	< 500	< 5000	–
CCCCOC(=O)c1ccccc1C=C(Br)c1ccc(CC(C)CC)cc1 (stereo not drawn) [Compound 122]	20 to 200	500 to 5000	5000 to 50000	–
CCCCOC(=O)c1ccccc1C=C(I)c1ccc(Cc2ccccc2)cc1 [Compound 123]	20 to 200	–	5000 to 50000	EC50 [2, 7]: 500 to 5000 nM
COC(=O)c1ccccc1C=Cc1ccc(CC(C)(C)C)cc1 [Compound 124]	≤ 20	< 500	< 5000	–

SMILES	IC50 [1, 4] [nM]	EC50 [2, 5] [nM]	IC50 [3, 6] [nM]	also measured
CCC(C)Cc1ccc(C=Cc2ccccc2C(=O)OC)cc1 (stereo not drawn) [Compound 125]	20 to 200	500 to 5000	5000 to 50000	–
COC(=O)c1ccccc1C=Cc1ccc(CC2CCCC2)cc1 [Compound 126]	20 to 200	500 to 5000	5000 to 50000	–
COC(=O)c1ccccc1C=Cc1ccc(CC2CCCCC2)cc1 [Compound 127]	20 to 200	500 to 5000	5000 to 50000	–
COC(=O)c1ccccc1C=Cc1ccc(Cc2ccccc2)cc1 [Compound 128]	20 to 200	–	5000 to 50000	EC50 [2, 7]: 500 to 5000 nM
COC(=O)c1ccccc1C=Cc1ccc(CC(C)C)cc1 [Compound 129]	20 to 200	500 to 5000	5000 to 50000	–
CCCCCc1ccc(C=Cc2ccccc2C(=O)OC)cc1 [Compound 130]	≤ 20	< 500	< 5000	–
CCCCOC(=O)c1ccccc1C=Cc1ccc(CC(C)C)cc1 [Compound 131]	≤ 20	< 500	< 5000	–
CCCCCc1ccc(C=Cc2ccccc2C(=O)OCCCC)cc1 [Compound 132]	≤ 20	< 500	< 5000	–
CC(C)(C)Cc1ccc(C=Cc2ccccc2C(=O)O)cc1 [Compound 134]	≤ 20	< 500	< 5000	–
CC(C)(C)Cc1ccc(C=Cc2cccc(O)c2C(=O)O)cc1 [Compound 135]	≤ 20	< 500	< 5000	–
CC(C)(C)Cc1ccc(C=Cc2ccc(O)cc2C(=O)O)cc1 [Compound 136]	≤ 20	< 500	< 5000	–
CC(C)(C)Cc1ccc(C=Cc2cccc(N)c2C(=O)O)cc1 [Compound 137]	≤ 20	< 500	< 5000	–
CC(C)(C)Cc1ccc(C=Cc2ccc(N)cc2C(=O)O)cc1 [Compound 138]	≤ 20	< 500	< 5000	–
Cc1cccc(C=Cc2ccc(CC(C)(C)C)cc2)c1C(=O)O [Compound 139]	≤ 20	< 500	< 5000	–
Cc1ccc(C=Cc2ccc(CC(C)(C)C)cc2)c(C(=O)O)c1 [Compound 140]	≤ 20	< 500	< 5000	–
CC(C)(C)Cc1ccc(C=Cc2ccccc2C(N)=O)cc1 [Compound 141]	≤ 20	< 500	< 5000	–
CCCCOC(=O)c1cc2ccccc2cc1C=Cc1ccc(CC(C)(C)C)cc1 [Compound 142]	20 to 200	500 to 5000	5000 to 50000	–
CCCCOC(=O)c1ccccc1C=Cc1ccc(CC(C)(C)C)cn1 [Compound 143]	20 to 200	500 to 5000	5000 to 50000	–
CCCCOC(=O)c1ccccc1C=Cc1ccc(CC(C)(C)C)nc1 [Compound 144]	20 to 200	500 to 5000	5000 to 50000	–
CCCCOC(=O)c1ncccc1C=Cc1ccc(CC(C)(C)C)cc1 [Compound 145]	20 to 200	500 to 5000	5000 to 50000	–
CCCCOC(=O)c1cnccc1C=Cc1ccc(CC(C)(C)C)cc1 [Compound 146]	–	–	–	IC50 [1, 8]: 20 to 200 nM; EC50 [2, 9]: 500 to 5000 nM; IC50 [3, 10]: 5000 to 50000 nM
CCCCOC(=O)c1ccncc1C=Cc1ccc(CC(C)(C)C)cc1 [Compound 147]	–	–	–	IC50 [1, 8]: 20 to 200 nM; EC50 [2, 9]: 500 to 5000 nM; IC50 [3, 10]: 5000 to 50000 nM
CCCCOC(=O)c1cccnc1C=Cc1ccc(CC(C)(C)C)cc1 [Compound 148]	–	–	–	IC50 [1, 8]: 20 to 200 nM; EC50 ([2]; HCV replicon cells, read-out: Test Example 3: antiviral activity (EC50) group): 500 to 5000 nM; IC50 ([3]; read-out: Test Example 4: activity on inhibiting mitochondrial swelling (IC50) group): 5000 to 50000 nM

From patent publication US11286228B2, “Stilbene derivative and method for preparing same” (Ozchela Inc., priority 2016, dated 2022)
